From patent US20240165135A1, “COMPOSITIONS AND METHODS FOR THE TREATMENT OF CANCER” (The State of Israel, Ministry of Agriculture & Rural …, priority 2021, published 2024)

Columns and labels:
Assay type in all cases: cell-based, Human
U87 GBM cells = experiment: XTT cell viability assay on U87; conditions: 48 hours; Doxorubicin up to 50 μg/mL
Procedure: Cell cultures—Human glioblastoma A172 (ATCC®CRL-1620™) was cultured in DMEM (01-055-1A, Biological Industries, Israel) and U87MG (U87; ATCC®HTB-14™) in EMEM (01-058-1A; Biological Industries, Israel). Both media were supplemented with 10% fetal bovine serum (FBS, 04-127-1A, Biological Industries, Israel), 1% Pen-Strep, 1% L-Glutamine and 0.02% plasmocin (i.e., complete medium). Cells were incubated at 37° C. in a humidified atmosphere containing 5% CO2—95% air. Serum free media (SFM) was composed of DMEM/F12 (01-170-1A; Biological Industries, Israel), including all the supplements above except for FBS. Neurosphere media for A172 was composed of SFM with 2% B-27; Neurosphere media for U87 was serum-free EMEM without B27. For Glioblastoma stem cells (GSCs) cultures all human materials were used in accordance with the policies of the Henry Ford Hospital Institutional Review Board. Generation of GSCs from fresh GBM specimens and their characterization have been recently described. […]
Cell viability assays—Cells were seeded in 96-well plates at density of 2×10^4 per well (100 μL/well) in SFM (for A172) or complete medium (for U87) and were incubated at 37° C. overnight to allow attachment. […] Absorbance was recorded by a Synergy H1 hybrid reader photometer (BioTek) at 490 nm with 650 nm of reference wavelength. […]

A172 cells [1] = experiment: Apoptosis assay, Annexin V-FITC and PI, FACS, A172; conditions: 48 hours, F4-SM 10 μg/mL, F5-SM 10 μg/mL, Doxo 0.5 μg/mL
Procedure: Apoptosis assay—Apoptosis for the A172 cell line was assessed using MEBCYTO Apoptosis Kit with Annexin V-FITC and PI (MBL, Enco, 4700). Staining was carried out according to manufacturer's instructions. In brief, cells were seeded in a 6-well TC plate, at a density of 4×10^5 cells in 2 mL of SFM per well. 24 hours following seeding, cells were treated with the indicated treatments in complete medium for 48 hours. Following incubation, cells were harvested using trypsin and centrifuged for 5 minutes at 1600 rpm. Cell pellets were resuspended and washed twice with 1 mL of PBS. The cells in each sample were resuspended in 85 μL of Annexin binding buffer. Cells were stained using 10 μL of Annexin V-FITC solution and 5 μL of propidium iodide (PI) working solution followed by incubation in the dark at room temperature for 15 minutes. Then 400 μL of Annexin V binding buffer was added to each tube and flow cytometry was performed using a Gallios flow cytometer (FACS). Cells were considered apoptotic if they were Annexin V+/PI− (early apoptosis) or Annexin V+/PI+ (late apoptosis). Live cells were defined as Annexin V−/PI−, and Annexin V−/PI+ as necrosis.

A172 cells [2] = experiment: F-actin staining, confocal imaging of A172 cytoskeleton; conditions: 24 hours; F4 12 μg/mL, F5 10 μg/mL, Doxo 0.5 μg/mL
Procedure: Cell staining—EasyProbes™ ActinRed 555 Stain was used for F-actin staining and Hoechst 33342 (ABP Biosciences, USA) for nuclei staining, according to the manufacturer's instructions. Briefly, cells were seeded on confocal dishes (D35-20-1.5-N, Cellvis, USA) at a density of 2×10^4 in 500 μL complete medium. Following 24 hours incubation, the indicated treatments at different concentrations were added for additional 24 hours. For the staining process, cells were washed with PBS and fixed with 3.7% formaldehyde solution in PBS and incubated at room temperature for 10 minutes followed by incubation in 0.1% Triton X-100 (T8787; Sigma Aldrich, USA) for 5 minutes, washing with PBS and incubation in 1% BSA (A7284; Sigma Aldrich, USA) solution for 30 minutes. Two drops of EasyProbes™ Actin and of Hoechst were applied to each of the samples for 20 minutes. […] The number of F-actin filaments was quantified as the number of filaments that crosse a line that is drawn electronically across the soma. Percentage of filaments in the different treatments was calculated out of the average number of filaments in the control.

Structure (SMILES): COc1cccc2c1C(=O)c1c(O)c3c(c(O)c1C2=O)C[C@@](O)(C(=O)CO)C[C@@H]3O[C@H]1C[C@H](N)[C@H](O)[C@H](C)O1 [Doxorubicin]
- activity on the U87 cell line (U87 GBM cells): only moderately active on this cell line
- necrotic cells (A172 cells [1]; methanol control 3.4%): 23.8%
- cell apoptosis (A172 cells [1]; vehicle control 8.0%): 60.6%
- F-actin network / structures (A172 cells [2]): less pronounced in comparison to that of F4 or F5
